Reference: patent US6358885B1, “Substituted phenylheterocyclic herbicides” (Mississippi State University, priority 1992, dated 2002)

What was measured:
Assay in all cases: Test B preemergence/postemergence greenhouse plant response rating 0 to 10
giant foxtail = type: in vivo, Setaria faberii; details: for Plant response rating, Giant foxtail: 0 to 10 scale
Procedure, shortened: (§1)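 Postemergence treatment of plants two to eighteen cm tall ran alongside preemergence treatment of planted seed, each using compound in a non-phytotoxic solvent.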

wild buckwheat = type: in vivo, Polygonum convolvulus; details: for Plant response rating, Wild buckwheat: 0 to 10 scale
Procedure, shortened: as §1

velvetleaf = type: in vivo, Abutilon theophrasti; details: for Plant response rating, Velvetleaf: 0 to 10 scale
Procedure, shortened: as §1

rice = type: in vivo, Oryza sativa; details: for Plant response rating, Rice: 0 to 10 scale
Procedure, shortened: as §1

morningglory = type: in vivo, Ipomoea hederacea; details: for Plant response rating, Morningglory: 0 to 10 scale
Procedure, shortened: as §1

cocklebur = type: in vivo, Xanthium pensylvanicum; details: for Plant response rating, Cocklebur: 0 to 10 scale
Procedure, shortened: as §1

barnyardgrass = type: in vivo, Echinochloa crus-galli; details: for Plant response rating, Barnyardgrass: 0 to 10 scale
Procedure, shortened: as §1

lambsquarters = type: in vivo, Chenopodium album; details: for Plant response rating, Lambsquarter: 0 to 10 scale
Procedure, shortened: as §1

cheatgrass = type: in vivo, Bromus secalinus; details: for Plant response rating, Cheatgrass: 0 to 10 scale
Procedure, shortened: as §1

rape = type: in vivo, Brassica napus; details: for Plant response rating, Rape: 0 to 10 scale
Procedure, shortened: as §1

chickweed = type: in vivo, Stellaria media; details: for Plant response rating, Chickweed: 0 to 10 scale
Procedure, shortened: as §1

crabgrass = type: in vivo, Digitaria spp.; details: for Plant response rating, Crabgrass: 0 to 10 scale
Procedure, shortened: as §1

wild oat = type: in vivo, Avena fatua; details: for Plant response rating, Wild oat: 0 to 10 scale
Procedure, shortened: as §1

sorghum = type: in vivo, Sorghum bicolor; details: for Plant response rating, Sorghum: 0 to 10 scale
Procedure, shortened: as §1

barley = type: in vivo, Hordeum vulgare; details: for Plant response rating, Barley: 0 to 10 scale
Procedure, shortened: as §1

soybean = type: in vivo, Glycine max; details: for Plant response rating, Soybean: 0 to 10 scale
Procedure, shortened: as §1

bedstraw = type: in vivo, Galium aparine; details: for Plant response rating, Bedstraw: 0 to 10 scale
Procedure, shortened: as §1

cotton = type: in vivo, Gossypium hirsutum; details: for Plant response rating, Cotton: 0 to 10 scale
Procedure, shortened: as §1

blackgrass = type: in vivo, Alopecurus myosuroides; details: for Plant response rating, Blackgrass: 0 to 10 scale
Procedure, shortened: as §1

corn = type: in vivo, Zea mays; details: for Plant response rating, Corn: 0 to 10 scale
Procedure, shortened: as §1

sugar beet = type: in vivo, Beta vulgaris; details: for Plant response rating, Sugar beet: 0 to 10 scale
Procedure, shortened: as §1

purple nutsedge = type: in vivo, Cyperus rotundus; details: for Plant response rating, Nutsedge: 0 to 10 scale
Procedure, shortened: as §1

wheat = type: in vivo, Triticum aestivum; details: for Plant response rating, Wheat: 0 to 10 scale
Procedure, shortened: as §1

**Q.** What does the source list for CON=C(C)c1cc(-c2nn3c(c2Cl)CCCC3)c(F)cc1Cl [Compound 82]?
**A.** Plant response rating, Giant foxtail (giant foxtail; POSTEMERGENCE, Rate 50 g/ha): 4; Plant response rating, Giant foxtail (giant foxtail; PREEMERGENCE, Rate 50 g/ha): 3; Plant response rating (0 to 10 scale), Giant foxtail (giant foxtail; PREEMERGENCE, Rate 200 g/ha): 6; Plant response rating, Giant foxtail (giant foxtail; Rate 200 g/ha, POSTEMERGENCE): 5; Plant response rating, Wild buckwheat (wild buckwheat; POSTEMERGENCE, Rate 50 g/ha): 10; Plant response rating, Wild buckwheat (wild buckwheat; PREEMERGENCE, Rate 50 g/ha): 7; Plant response rating (0 to 10 scale), Wild buckwheat (wild buckwheat; PREEMERGENCE, Rate 200 g/ha): 9; Plant response rating, Wild buckwheat (wild buckwheat; Rate 200 g/ha, POSTEMERGENCE): 10; Plant response rating, Velvetleaf (velvetleaf; POSTEMERGENCE, Rate 50 g/ha): 10; Plant response rating, Velvetleaf (velvetleaf; PREEMERGENCE, Rate 50 g/ha): 0; Plant response rating (0 to 10 scale), Velvetleaf (velvetleaf; PREEMERGENCE, Rate 200 g/ha): 10; Plant response rating, Velvetleaf (velvetleaf; Rate 200 g/ha, POSTEMERGENCE): 10; Plant response rating, Rice (rice; POSTEMERGENCE, Rate 50 g/ha): 4; Plant response rating, Rice (rice; PREEMERGENCE, Rate 50 g/ha): 0; Plant response rating (0 to 10 scale), Rice (rice; PREEMERGENCE, Rate 200 g/ha): 2; Plant response rating, Rice (rice; Rate 200 g/ha, POSTEMERGENCE): 6; Plant response rating, Morningglory (morningglory; POSTEMERGENCE, Rate 50 g/ha): 10; Plant response rating, Morningglory (morningglory; PREEMERGENCE, Rate 50 g/ha): 0; Plant response rating (0 to 10 scale), Morningglory (morningglory; PREEMERGENCE, Rate 200 g/ha): 2; Plant response rating, Morningglory (morningglory; Rate 200 g/ha, POSTEMERGENCE): 10; Plant response rating, Cocklebur (cocklebur; POSTEMERGENCE, Rate 50 g/ha): 7; Plant response rating, Cocklebur (cocklebur; PREEMERGENCE, Rate 50 g/ha): 0; Plant response rating (0 to 10 scale), Cocklebur (cocklebur; PREEMERGENCE, Rate 200 g/ha): 0; Plant response rating, Cocklebur (cocklebur; Rate 200 g/ha, POSTEMERGENCE): 8; Plant response rating, Barnyardgrass (barnyardgrass; POSTEMERGENCE, Rate 50 g/ha): 6; Plant response rating, Barnyardgrass (barnyardgrass; PREEMERGENCE, Rate 50 g/ha): 2; Plant response rating (0 to 10 scale), Barnyardgrass (barnyardgrass; PREEMERGENCE, Rate 200 g/ha): 6; Plant response rating, Barnyardgrass (barnyardgrass; Rate 200 g/ha, POSTEMERGENCE): 7; Plant response rating, Lambsquarter (lambsquarters; POSTEMERGENCE, Rate 50 g/ha): 7; Plant response rating, Lambsquarter (lambsquarters; PREEMERGENCE, Rate 50 g/ha): 10; Plant response rating (0 to 10 scale), Lambsquarter (lambsquarters; PREEMERGENCE, Rate 200 g/ha): 10; Plant response rating, Lambsquarter (lambsquarters; Rate 200 g/ha, POSTEMERGENCE): 9; Plant response rating, Cheatgrass (cheatgrass; POSTEMERGENCE, Rate 50 g/ha): 2; Plant response rating, Cheatgrass (cheatgrass; PREEMERGENCE, Rate 50 g/ha): 2; Plant response rating (0 to 10 scale), Cheatgrass (cheatgrass; PREEMERGENCE, Rate 200 g/ha): 6; Plant response rating, Cheatgrass (cheatgrass; Rate 200 g/ha, POSTEMERGENCE): 3; Plant response rating, Rape (rape; POSTEMERGENCE, Rate 50 g/ha): 5; Plant response rating, Rape (rape; PREEMERGENCE, Rate 50 g/ha): 0; Plant response rating (0 to 10 scale), Rape (rape; PREEMERGENCE, Rate 200 g/ha): 6; Plant response rating, Rape (rape; Rate 200 g/ha, POSTEMERGENCE): 7; Plant response rating, Chickweed (chickweed; POSTEMERGENCE, Rate 50 g/ha): 2; Plant response rating, Chickweed (chickweed; PREEMERGENCE, Rate 50 g/ha): 6; Plant response rating (0 to 10 scale), Chickweed (chickweed; PREEMERGENCE, Rate 200 g/ha): 0; Plant response rating, Chickweed (chickweed; Rate 200 g/ha, POSTEMERGENCE): 3; Plant response rating, Crabgrass (crabgrass; POSTEMERGENCE, Rate 50 g/ha): 3; Plant response rating, Crabgrass (crabgrass; PREEMERGENCE, Rate 50 g/ha): 3; Plant response rating (0 to 10 scale), Crabgrass (crabgrass; PREEMERGENCE, Rate 200 g/ha): 7; Plant response rating, Crabgrass (crabgrass; Rate 200 g/ha, POSTEMERGENCE): 4; Plant response rating, Wild oat (wild oat; POSTEMERGENCE, Rate 50 g/ha): 2; Plant response rating, Wild oat (wild oat; PREEMERGENCE, Rate 50 g/ha): 2; Plant response rating (0 to 10 scale), Wild oat (wild oat; PREEMERGENCE, Rate 200 g/ha): 7; Plant response rating, Wild oat (wild oat; Rate 200 g/ha, POSTEMERGENCE): 4; Plant response rating, Sorghum (sorghum; POSTEMERGENCE, Rate 50 g/ha): 2; Plant response rating, Sorghum (sorghum; PREEMERGENCE, Rate 50 g/ha): 0; Plant response rating (0 to 10 scale), Sorghum (sorghum; PREEMERGENCE, Rate 200 g/ha): 2; Plant response rating, Sorghum (sorghum; Rate 200 g/ha, POSTEMERGENCE): 4; Plant response rating, Barley (barley; POSTEMERGENCE, Rate 50 g/ha): 2; Plant response rating, Barley (barley; PREEMERGENCE, Rate 50 g/ha): 0; Plant response rating (0 to 10 scale), Barley (barley; PREEMERGENCE, Rate 200 g/ha): 0; Plant response rating, Barley (barley; Rate 200 g/ha, POSTEMERGENCE): 3; Plant response rating, Soybean (soybean; POSTEMERGENCE, Rate 50 g/ha): 4; Plant response rating, Soybean (soybean; PREEMERGENCE, Rate 50 g/ha): 0; Plant response rating (0 to 10 scale), Soybean (soybean; PREEMERGENCE, Rate 200 g/ha): 6; Plant response rating, Soybean (soybean; Rate 200 g/ha, POSTEMERGENCE): 6; Plant response rating, Bedstraw (bedstraw; POSTEMERGENCE, Rate 50 g/ha): 8; Plant response rating, Bedstraw (bedstraw; PREEMERGENCE, Rate 50 g/ha): 0; Plant response rating (0 to 10 scale), Bedstraw (bedstraw; PREEMERGENCE, Rate 200 g/ha): 9; Plant response rating, Bedstraw (bedstraw; Rate 200 g/ha, POSTEMERGENCE): 9; Plant response rating, Cotton (cotton; POSTEMERGENCE, Rate 50 g/ha): 10; Plant response rating, Cotton (cotton; PREEMERGENCE, Rate 50 g/ha): 0; Plant response rating (0 to 10 scale), Cotton (cotton; PREEMERGENCE, Rate 200 g/ha): 1; Plant response rating, Cotton (cotton; Rate 200 g/ha, POSTEMERGENCE): 10; Plant response rating, Blackgrass (blackgrass; POSTEMERGENCE, Rate 50 g/ha): 2; Plant response rating, Blackgrass (blackgrass; PREEMERGENCE, Rate 50 g/ha): 0; Plant response rating (0 to 10 scale), Blackgrass (blackgrass; PREEMERGENCE, Rate 200 g/ha): 4; Plant response rating, Blackgrass (blackgrass; Rate 200 g/ha, POSTEMERGENCE): 3; Plant response rating, Corn (corn; POSTEMERGENCE, Rate 50 g/ha): 3; Plant response rating, Corn (corn; PREEMERGENCE, Rate 50 g/ha): 0; Plant response rating (0 to 10 scale), Corn (corn; PREEMERGENCE, Rate 200 g/ha): 3; Plant response rating, Corn (corn; Rate 200 g/ha, POSTEMERGENCE): 4; Plant response rating, Sugar beet (sugar beet; POSTEMERGENCE, Rate 50 g/ha): 10; Plant response rating, Sugar beet (sugar beet; PREEMERGENCE, Rate 50 g/ha): 8; Plant response rating (0 to 10 scale), Sugar beet (sugar beet; PREEMERGENCE, Rate 200 g/ha): 10; Plant response rating, Sugar beet (sugar beet; Rate 200 g/ha, POSTEMERGENCE): 10; Plant response rating, Nutsedge (purple nutsedge; POSTEMERGENCE, Rate 50 g/ha): 2; Plant response rating, Nutsedge (purple nutsedge; PREEMERGENCE, Rate 50 g/ha): 0; Plant response rating (0 to 10 scale), Nutsedge (purple nutsedge; PREEMERGENCE, Rate 200 g/ha): 0; Plant response rating, Nutsedge (purple nutsedge; Rate 200 g/ha, POSTEMERGENCE): 2; Plant response rating, Wheat (wheat; POSTEMERGENCE, Rate 50 g/ha): 3; Plant response rating, Wheat (wheat; PREEMERGENCE, Rate 50 g/ha): 0; Plant response rating (0 to 10 scale), Wheat (wheat; PREEMERGENCE, Rate 200 g/ha): 2; Plant response rating, Wheat (wheat; Rate 200 g/ha, POSTEMERGENCE): 4
